# Reference: patent US11840686B2, “Modulation of prekallikrein (PKK) expression” (Ionis Pharmaceuticals, Inc., priority 2013, dated 2023)
# Strand notation (5' to 3'): a small letter for the sugar, then the base; units joined by * are phosphorothioate-linked, units joined directly phosphodiester-linked; [ ] holds rarer units or linkages, { } end groups; capitals alone tell only the bases. e = 2'-O-(2-methoxyethyl) (MOE); [5mC] = 5-methylcytosine; d = 2'-deoxy (DNA)
# Test system: human PKK mRNA
# Test: Antisense inhibition of human PKK mRNA in HepaRG cells, 5,000 nM (Example 2)
# Format: cell-based
# Settings: HepaRG cells, 5,000 nM antisense oligonucleotide; 5-10-5 gapmers; Table 16
# Method in brief: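 Percent inhibition of PKK mRNA is relative to untreated control, with qRT-PCR (probe set RTS3454) values adjusted to total RNA by RIBOGREEN. Oligonucleotides, fully phosphorothioate 2′-MOE gapmers, were delivered at 5,000 nM by electroporation into 20,000 HepaRG cells/well for about 24 h.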
row,Substance,% inhibition [%]
1,546918 (eA*eA*e[5mC]*eA*eT*d[5mC]*dA*d[5mC]*dT*dG*dT*dA*d[5mC]*d[5mC]*dT*eA*eT*eA*eA*e[5mC]; antisense) [compound 546918],14
2,546914 (eA*eT*eA*eT*e[5mC]*dA*d[5mC]*dT*dG*dT*dA*d[5mC]*d[5mC]*dT*dA*eT*eA*eT*e[5mC]*eA; antisense) [compound 546914],52
3,547691 (antisense eA*e[5mC]*eT*eG*eT*dA*dA*d[5mC]*dA*dA*dT*dA*dT*d[5mC]*dA*e[5mC]*eT*eG*eT*e[5mC]) [compound 547691],36
4,547707 (antisense eT*eG*eA*eA*eA*dA*dG*d[5mC]*d[5mC]*dA*d[5mC]*dG*d[5mC]*d[5mC]*d[5mC]*eT*eT*eA*eG*e[5mC]) [compound 547707],32
5,547688 (antisense e[5mC]*eA*e[5mC]*eT*eG*dT*d[5mC]*d[5mC]*dT*dA*dT*dA*dA*d[5mC]*dT*eA*eT*eA*eT*e[5mC]) [compound 547688],47
6,547719 (eT*eA*e[5mC]*e[5mC]*eA*dA*dG*d[5mC]*dT*dT*dG*dT*dA*dG*dA*eA*eG*eG*eG*eA; antisense) [compound 547719],69
7,546983 (eG*eA*eT*eG*eA*d[5mC]*d[5mC]*dT*dG*d[5mC]*dA*dG*dA*dT*dG*e[5mC]*eA*e[5mC]*eA*eG; antisense) [compound 546983],74
8,546944 (eG*e[5mC]*e[5mC]*eA*e[5mC]*dT*dA*dA*d[5mC]*d[5mC]*d[5mC]*dA*d[5mC]*d[5mC]*dT*e[5mC]*eT*eT*eA*eA; antisense) [compound 546944],42

# Same assay, conditions: HepaRG cells, 5,000 nM antisense oligonucleotide; 5-10-5 gapmers; Table 17
row,Substance,% inhibition [%]
1,547729 (eG*eT*eG*eA*eG*dA*dT*dT*dG*dG*dT*dG*dG*dT*dG*eG*eG*eT*eG*eG; antisense) [compound 547729],45
2,547082 (eT*e[5mC]*eT*e[5mC]*e[5mC]*d[5mC]*dT*dG*dA*dG*dT*d[5mC]*dA*d[5mC]*dA*eG*eT*eG*eG*eA; antisense) [compound 547082],64

# Same assay, conditions: HepaRG cells, electroporation with 5,000 nM antisense oligonucleotide, approximately 24 hours, PKK mRNA by RT-PCR (RTS3454), relative to untreated control cells; Table 5 experiment
row,Substance,% inhibition [%]
1,547271 (eT*eT*eA*eA*eA*dA*dA*dT*dG*dA*dA*d[5mC]*dG*dG*dT*e[5mC]*eT*eT*e[5mC]*eA; antisense) [compound 547271],60
2,547280 (antisense eG*eA*eA*eA*eA*d[5mC]*dA*d[5mC]*dA*dA*dT*dT*dG*d[5mC]*dT*eT*e[5mC]*eT*eT*eG) [compound 547280],47
3,546165 (e[5mC]*eA*eT*eT*eG*dA*dT*dT*dG*dA*dA*d[5mC]*dT*dT*dG*e[5mC]*eT*eG*eG*eA; antisense) [compound 546165],71

# Same assay, conditions: HepaRG cells, electroporation with 5,000 nM antisense oligonucleotide, approximately 24 hours, PKK mRNA by RT-PCR (RTS3454), relative to untreated control cells; Table 6 experiment
row,Substance,% inhibition [%]
1,546203 (antisense eA*eA*eT*eT*eG*dT*dT*d[5mC]*d[5mC]*dG*dG*dT*dA*d[5mC]*dT*e[5mC]*eT*eG*e[5mC]*e[5mC]) [compound 546203],76
2,547331 (antisense eA*eG*e[5mC]*eA*e[5mC]*dT*dT*dA*dT*dT*dT*dG*dA*dT*dG*eA*e[5mC]*e[5mC]*eA*e[5mC]) [compound 547331],47
3,547321 (antisense eT*e[5mC]*eA*eA*eG*dG*dA*dA*dT*dG*dT*d[5mC]*d[5mC]*dA*dG*eA*eA*eA*e[5mC]*eT) [compound 547321],53
4,547330 (antisense e[5mC]*eT*eT*eA*eT*dT*dT*dG*dA*dT*dG*dA*d[5mC]*d[5mC]*dA*e[5mC]*eA*eT*eT*eG) [compound 547330],60

# Same assay, conditions: HepaRG cells, electroporation, 5,000 nM antisense oligonucleotide, approx. 24 hours, primer probe set RTS3454, relative to untreated control cells; Table 11
row,Substance,% inhibition [%]
1,546368 (antisense eG*eG*eT*eT*eG*dT*dA*dA*dA*dA*dA*dT*dT*dG*d[5mC]*e[5mC]*eT*eA*eG*eA) [compound 546368],44
2,547513 (antisense eT*eG*e[5mC]*eA*eG*dA*dT*dG*dA*dG*dG*dA*d[5mC]*d[5mC]*d[5mC]*e[5mC]*e[5mC]*e[5mC]*eA*eG) [compound 547513],72

# Same assay, conditions: Table 7; HepaRG cells, electroporation with 5,000 nM antisense oligonucleotide, approx. 24 hours; PKK mRNA by RT-PCR (RTS3454), relative to untreated control cells
row,Substance,% inhibition [%]
1,547394 (eT*eT*eT*eG*e[5mC]*dA*dG*dG*dT*dT*dA*dA*dA*dA*dG*eG*e[5mC]*eT*eA*eT; antisense) [compound 547394],29
2,547372 (eG*eA*eT*eG*eG*dT*d[5mC]*d[5mC]*dG*dA*d[5mC]*dA*d[5mC]*dA*d[5mC]*eA*eA*eA*eA*eG; antisense) [compound 547372],32
3,547391 (eA*eT*eA*eT*e[5mC]*d[5mC]*dA*dG*dA*dT*dA*dT*dG*dG*dT*eG*eT*eT*eT*eT; antisense) [compound 547391],32
4,546249 (e[5mC]*eT*eT*e[5mC]*eT*d[5mC]*d[5mC]*dT*d[5mC]*d[5mC]*dA*dA*dA*dG*dT*e[5mC]*eA*eA*e[5mC]*eT; antisense) [compound 546249],68
5,547409 (eA*eG*eT*e[5mC]*eA*d[5mC]*dA*dT*dT*d[5mC]*dA*dA*dT*dT*d[5mC]*eT*eT*e[5mC]*eT*e[5mC]; antisense) [compound 547409],67
6,547397 (eG*eT*eT*e[5mC]*eA*dG*dG*dT*dA*dA*dA*dG*dT*dT*d[5mC]*eT*eT*eT*eT*eG; antisense) [compound 547397],27

# Same assay, conditions: Table 8; HepaRG cells, electroporation with 5,000 nM antisense oligonucleotide, approx. 24 hours; PKK mRNA by RT-PCR (RTS3454), relative to untreated control cells
row,Substance,% inhibition [%]
1,546297 (antisense eT*eA*eT*eA*eG*dA*dT*dG*d[5mC]*dG*d[5mC]*d[5mC]*dA*dA*dA*e[5mC]*eA*eT*e[5mC]*e[5mC]) [compound 546297],82

# Same assay, conditions: Table 9 experiment; HepaRG cells, 20,000 cells per well, electroporation with 5,000 nM antisense oligonucleotide, approx. 24 hours; PKK mRNA by RT-PCR (RTS3454), relative to untreated control cells
row,Substance,% inhibition [%]
1,547471 (antisense e[5mC]*e[5mC]*eT*eT*eT*d[5mC]*dT*d[5mC]*d[5mC]*dT*dT*d[5mC]*dG*dA*dG*eA*eA*eG*e[5mC]*e[5mC]) [compound 547471],58
2,546307 (antisense eT*eA*eT*eA*eG*dT*dT*dT*dT*dG*dG*dT*dG*dA*dA*eT*eA*eA*eT*eA) [compound 546307],12
3,547481 (antisense e[5mC]*e[5mC]*eT*eT*e[5mC]*dT*dT*dT*dA*dT*dA*dG*d[5mC]*d[5mC]*dA*eG*e[5mC]*eA*e[5mC]*eA) [compound 547481],71

# Same assay, conditions: Table 10 experiment; HepaRG cells, 20,000 cells per well, electroporation with 5,000 nM antisense oligonucleotide, approx. 24 hours; PKK mRNA by RT-PCR (RTS3454), relative to untreated control cells
row,Substance,% inhibition [%]
1,547471 (antisense e[5mC]*e[5mC]*eT*eT*eT*d[5mC]*dT*d[5mC]*d[5mC]*dT*dT*d[5mC]*dG*dA*dG*eA*eA*eG*e[5mC]*e[5mC]) [compound 547471],43
2,546307 (antisense eT*eA*eT*eA*eG*dT*dT*dT*dT*dG*dG*dT*dG*dA*dA*eT*eA*eA*eT*eA) [compound 546307],0
3,547481 (antisense e[5mC]*e[5mC]*eT*eT*e[5mC]*dT*dT*dT*dA*dT*dA*dG*d[5mC]*d[5mC]*dA*eG*e[5mC]*eA*e[5mC]*eA) [compound 547481],77

# Same assay, conditions: Table 13; human PKK mRNA in HepaRG cells; 5-10-5 gapmers
row,Substance,% inhibition [%]
1,546756 (eA*eT*eA*eA*eG*d[5mC]*dA*dT*d[5mC]*dT*d[5mC]*dT*d[5mC]*dT*dG*eA*e[5mC]*e[5mC]*eT*eA; antisense) [compound 546756],47
2,547569 (eA*e[5mC]*eT*eA*e[5mC]*d[5mC]*dA*dT*dT*dT*dG*dG*dG*dT*dT*eG*eG*eT*eA*eG; antisense) [compound 547569],9
3,546831 (eT*e[5mC]*eT*eA*eA*d[5mC]*dA*dG*dT*dA*dT*d[5mC]*dA*d[5mC]*dT*eG*eT*eA*e[5mC]*eT; antisense) [compound 546831],79
4,546746 (eT*e[5mC]*e[5mC]*eT*eG*dT*dT*dG*d[5mC]*d[5mC]*dT*dG*dA*d[5mC]*dA*eT*eG*e[5mC]*eT*eA; antisense) [compound 546746],65

# Same assay, conditions: human PKK mRNA in HepaRG cells; 5-10-5 gapmers; Table 14
row,Substance,% inhibition [%]
1,547607 (antisense eT*eA*eA*e[5mC]*eA*dA*dT*dA*dT*d[5mC]*dA*d[5mC]*dT*dG*dT*eA*e[5mC]*e[5mC]*eT*eA) [compound 547607],49
2,547604 (antisense eA*eT*eA*eT*e[5mC]*dA*d[5mC]*dT*dG*dT*dA*d[5mC]*d[5mC]*dT*dA*eT*eA*eA*e[5mC]*eT) [compound 547604],0

# Same assay, conditions: human PKK mRNA, HepaRG cells, 5,000 nM antisense oligonucleotide, Table 18
row,Substance,% inhibition [%]
1,548738 (DNA eT*eA*e[5mC]*eT*dA*dG*dT*dT*dT*d[5mC]*d[5mC]*dT*dA*eT*eA*eA*e[5mC]; antisense) [compound 548738],0
2,548779 (antisense eG*eT*e[5mC]*e[5mC]*dT*dA*dT*dA*dA*d[5mC]*dT*dA*dT*eA*eA*e[5mC]*eA) [compound 548779],0

# Same assay, conditions: human PKK mRNA, HepaRG cells; 5-10-5 motif oligonucleotides targeting SEQ ID NO: 1 and 10
row,Substance,% inhibition [%]
1,546891 (e[5mC]*eT*eG*eT*e[5mC]*d[5mC]*dT*dA*dT*dG*dT*d[5mC]*dA*d[5mC]*dT*eG*eT*eA*e[5mC]*e[5mC]; antisense) [compound 546891],81
2,547664 (eG*eT*eA*e[5mC]*e[5mC]*dT*dA*dT*dA*dA*d[5mC]*dT*dA*dT*dA*eA*e[5mC]*eA*eG*eT; antisense) [compound 547664],2
3,546898 (eA*eA*e[5mC]*eA*eG*dT*dA*dT*d[5mC]*dA*d[5mC]*dT*dG*dT*d[5mC]*e[5mC]*eT*eA*eT*eG; antisense) [compound 546898],91
4,547629 (antisense eA*e[5mC]*eT*e[5mC]*eT*dA*d[5mC]*d[5mC]*dT*dA*dT*dA*dA*d[5mC]*dT*e[5mC]*eT*eA*eA*e[5mC]) [compound 547629],0
5,547625 (antisense e[5mC]*eA*eG*eT*eA*dT*d[5mC]*dA*d[5mC]*dT*dG*dT*d[5mC]*d[5mC]*dT*eA*eT*eG*eT*e[5mC]) [compound 547625],79
